One assay deals with hornerin. As to the kind of experiment: Immunofluorescent microscopy of hornerin protein in tumor sections. Format: in vivo, mouse. Conditions: vs Scr siRNA. As to the method: Tumor sections were deparaffinized, rehydrated, heated in antigen retrieval solution (Vector), blocked for 30 minutes in blocking buffer, and incubated with anti-CD34 antibody (Abcam, ab8158, clone MEC14.7; 1:100) in blocking buffer overnight at 4° C. The sections were then incubated with goat anti-rat FITC secondary antibody (Abcam, ab6840; 1:100) in blocking buffer prior to mounting with Prolong Gold Antifade reagent (Invitrogen). Anti-actin, α-smooth muscle Cy3 antibody (Sigma, C6198, clone 1A4; 1:200) was added to the primary antibody solution if assaying for alpha-smooth muscle actin. […] Images were collected using a Nikon TE 2000-E2 microscope (Nikon Instruments) equipped with a Melles Griot Argon Laser System (Melles Griot, Carlsbad, CA, USA) and a Nikon D-Eclipse C1 confocal attachment and analyzed by Measurement Tool in Image J. To measure the relative hornerin expression in tumor vessels, three vessel segments per image were isolated and their mean intensity and area were measured and recorded. A weighted mean intensity was calculated to correct for differences in selected area. To measure the relative hornerin expression in tumor tissue, the mean intensity from three square sections (75×75 pixel) of tumor tissue per image was measured and recorded.

Another assay concerns tumor vasculature. As to the kind of experiment: Photoacoustic microscopy of tumor vasculature. Type of assay: in vivo, mouse. Conditions: day 12. The text has this:
Using an established PAM system (Wang & Hu, 2012; Ning et al., 2015a; Ning et al., 2015b), the tumor vasculature was characterized in vivo. Two laser wavelengths, 532 and 559 nm, were used to simultaneously quantify microvascular diameter, oxygen saturation, and blood flow at the same spatial scale (Ning et al., 2015a). The applied optical energies were 100 and 75 nJ, which are below the maximum permissible exposure energy. Throughout the experiment, mice were maintained under anesthesia with 1.5% vaporized isoflurane and the body temperature was kept at 37° C. All experimental procedures were carried out in conformity with the laboratory animal protocol approved by the Animal Care and Use Committee at the University of Virginia.

For “5′-GCAUGGAUCUUGUUGCGGUTT-3′ [Hrnr siRNA]”, the “decrease in hornerin expression in endothelial cells” value in the assay with hornerin (CD34+ tumor vessels) is given as 30%. Further, the “hornerin expression in epithelial cells from tumors” value in the assay on hornerin is on record as “no difference”. Besides, in the assay on tumor vasculature, the “tumor blood hemoglobin levels” value is on record as “remained unchanged” and the “tumor blood oxygen saturation compared to control” value was found to be 1.7 fold.

(Values after patent US12059429B2, “Hornerin: a novel non-VEGF mediated angiogenic protein expressed in both human and mouse angiogenic endothelial cells and human pancreatic cancer cells” (University of Virginia Patent Foundation, priority 2018, dated 2024).)
